Test: Stability studies of CBD prepared via Protocol 3 (crude, pure, 2x recrystallized; 5° C., 25° C./60% RH, 40° C./75% RH)
Format: physicochemical

## C=C(C)[C@@H]1CCC(C)=C[C@H]1c1c(O)cc(CCCCC)cc1O [Pure CBD (Recrystallized Twice)]
25° C./60% RH, 0 month
  Related substances by HPLC (low level): Δ9-Tetrahydrocannabinol: 11 ppm
  Water content in % w/w: <0.05%
25° C./60% RH, 1 month
  Appearance: Off-White
  Assay by HPLC: 100.2%
  Each unspecified impurity: <0.03% (ND)
  Related substances by HPLC (low level): Δ8-Tetrahydrocannabinol: 9 ppm
  Related substances by HPLC (low level): Δ9-Tetrahydrocannabinol: 6 ppm
  Related substances by HPLC: 4-Monobromo-CBD: <0.03% (ND)
  Related substances by HPLC: Olivetol: <0.03% (ND)
  Related substances by HPLC: Sum of impurities, ≥0.05%: <0.05% (ND)
  Related substances by HPLC: Δ8-Tetrahydrocannabinol: <0.02% (ND)
  Related substances by HPLC: Δ9-Tetrahydrocannabinol: <0.02% (ND)
25° C./60% RH, 2 months
  Appearance: Oft-White
  Assay by HPLC: 99.9%
  Each unspecified impurity: <0.03% (ND)
  Related substances by HPLC (low level): Δ8-Tetrahydrocannabinol: 7 ppm
  Related substances by HPLC (low level): Δ9-Tetrahydrocannabinol: 4 ppm
  Related substances by HPLC: 4-Monobromo-CBD: <0.03% (ND)
  Related substances by HPLC: Olivetol: <0.03% (ND)
  Related substances by HPLC: Sum of impurities, ≥0.05%: <0.05% (ND)
  Related substances by HPLC: Δ8-Tetrahydrocannabinol: <0.02% (ND)
  Related substances by HPLC: Δ9-Tetrahydrocannabinol: <0.02% (ND)
25° C./60% RH, 3 months
  Appearance: White
  Assay by HPLC: 98.4%
  Each unspecified impurity: RRT~1.980: RRT~1.980: 0.03%
  Related substances by HPLC (low level): Δ8-Tetrahydrocannabinol: 13 ppm
  Related substances by HPLC (low level): Δ9-Tetrahydrocannabinol: <4 ppm
  Related substances by HPLC: 4-Monobromo-CBD: <0.03% (ND)
  Related substances by HPLC: Olivetol: <0.03% (ND)
  Related substances by HPLC: Sum of impurities, ≥0.05%: <0.05%
  Related substances by HPLC: Δ8-Tetrahydrocannabinol: <0.02% (ND)
  Related substances by HPLC: Δ9-Tetrahydrocannabinol: <0.02% (ND)
40° C./75% RH, 0 month
  Related substances by HPLC (low level): Δ9-Tetrahydrocannabinol: 11 ppm
  Water content in % w/w: <0.05%
40° C./75% RH, 1 month
  Appearance: Off-White
  Assay by HPLC: 99.5%
  Each unspecified impurity: <0.03% (ND)
  Related substances by HPLC (low level): Δ8-Tetrahydrocannabinol: 6 ppm
  Related substances by HPLC (low level): Δ9-Tetrahydrocannabinol: 4 ppm
  Related substances by HPLC: 4-Monobromo-CBD: <0.03% (ND)
  Related substances by HPLC: Olivetol: <0.03% (ND)
  Related substances by HPLC: Sum of impurities, ≥0.05%: <0.05% (ND)
  Related substances by HPLC: Δ8-Tetrahydrocannabinol: <0.02% (ND)
  Related substances by HPLC: Δ9-Tetrahydrocannabinol: <0.02% (ND)
40° C./75% RH, 2 months
  Appearance: Off-White
  Assay by HPLC: 101.7%
  Each unspecified impurity: <0.03% (ND)
  Related substances by HPLC (low level): Δ8-Tetrahydrocannabinol: 6 ppm
  Related substances by HPLC (low level): Δ9-Tetrahydrocannabinol: <4 ppm (3 ppm)
  Related substances by HPLC: 4-Monobromo-CBD: <0.03% (ND)
  Related substances by HPLC: Olivetol: <0.03% (ND)
  Related substances by HPLC: Sum of impurities, ≥0.05%: <0.05% (ND)
  Related substances by HPLC: Δ8-Tetrahydrocannabinol: <0.02% (ND)
  Related substances by HPLC: Δ9-Tetrahydrocannabinol: <0.02% (ND)
40° C./75% RH, 3 months
  Appearance: Off-white
  Assay by HPLC: 99.4%
  Each unspecified impurity: RRT~1.981: 0.03%
  Related substances by HPLC (low level): Δ8-Tetrahydrocannabinol: 14 ppm
  Related substances by HPLC (low level): Δ9-Tetrahydrocannabinol: <4 ppm
  Related substances by HPLC: 4-Monobromo-CBD: <0.03% (ND)
  Related substances by HPLC: Olivetol: <0.03% (ND)
  Related substances by HPLC: Sum of impurities, ≥0.05%: <0.05%
  Related substances by HPLC: Δ8-Tetrahydrocannabinol: <0.02% (ND)
  Related substances by HPLC: Δ9-Tetrahydrocannabinol: <0.02% (ND)
40° C./75% RH, 5 months
  Appearance: Off-white
  Assay by HPLC: 98.9%
  Each unspecified impurity: RRT~0.956: 0.04%
  Related substances by HPLC (low level): Δ8-Tetrahydrocannabinol: 21 ppm
  Related substances by HPLC (low level): Δ9-Tetrahydrocannabinol: <4 ppm
  Related substances by HPLC: 4-Monobromo-CBD: <0.03% (ND)
  Related substances by HPLC: Olivetol: <0.03% (ND)
  Related substances by HPLC: Sum of impurities, ≥0.05%: <0.05%
  Related substances by HPLC: Δ8-Tetrahydrocannabinol: <0.02% (ND)
  Related substances by HPLC: Δ9-Tetrahydrocannabinol: <0.02% (ND)

## C=C(C)[C@@H]1CCC(C)=C[C@H]1c1c(O)cc(CCCCC)cc1O [Crude CBD]
25° C./60% RH, 0 month
  Appearance: White
  Assay by HPLC: 99.9%
  Each unspecified impurity: RRT~1.540: 0.06%
  Each unspecified impurity: RRT~1.690: 0.11%
  Related substances by HPLC (low level): Δ9-Tetrahydrocannabinol: 26 ppm
  Related substances by HPLC: 4-Monobromo-CBD: <0.03% (0.02%)
  Related substances by HPLC: Olivetol: <0.03% (ND)
  Related substances by HPLC: Sum of impurities, ≥0.05%: 0.17%
  Related substances by HPLC: Δ9-Tetrahydrocannabinol: <0.02% (ND)
25° C./60% RH, 1 month
  Appearance: Off-White
  Assay by HPLC: 98.2%
  Each unspecified impurity: RRT~1.927: 0.07%
  Each unspecified impurity: RRT~2.146: 0.12%
  Related substances by HPLC (low level): Δ8-Tetrahydrocannabinol: 6 ppm
  Related substances by HPLC (low level): Δ9-Tetrahydrocannabinol: 29 ppm
  Related substances by HPLC: 4-Monobromo-CBD: <0.03% (0.02)
  Related substances by HPLC: Olivetol: <0.03% (ND)
  Related substances by HPLC: Sum of impurities, ≥0.05%: 0.19%
  Related substances by HPLC: Δ8-Tetrahydrocannabinol: <0.02% (ND)
  Related substances by HPLC: Δ9-Tetrahydrocannabinol: <0.02% (ND)
25° C./60% RH, 2 months
  Appearance: Off-White
  Assay by HPLC: 99.5%
  Each unspecified impurity: RRT~1.931: 0.06%
  Each unspecified impurity: RRT~2.151: 0.09%
  Related substances by HPLC (low level): Δ8-Tetrahydrocannabinol: 5 ppm
  Related substances by HPLC (low level): Δ9-Tetrahydrocannabinol: 27 ppm
  Related substances by HPLC: 4-Monobromo-CBD: <0.03% (0.02%)
  Related substances by HPLC: Olivetol: <0.03% (0.02%)
  Related substances by HPLC: Sum of impurities, ≥0.05%: 0.15%
  Related substances by HPLC: Δ8-Tetrahydrocannabinol: <0.02% (ND)
  Related substances by HPLC: Δ9-Tetrahydrocannabinol: <0.02% (ND)
25° C./60% RH, 3 months
  Appearance: Off-white
  Assay by HPLC: 98.1%
  Each unspecified impurity: RRT~1.983: 0.05%
  Each unspecified impurity: RRT~2.260: 0.10%
  Related substances by HPLC (low level): Δ8-Tetrahydrocannabinol: 8 ppm
  Related substances by HPLC (low level): Δ9-Tetrahydrocannabinol: 13 ppm
  Related substances by HPLC: 4-Monobromo-CBD: <0.03% (0.02%)
  Related substances by HPLC: Olivetol: <0.03% (ND)
  Related substances by HPLC: Sum of impurities, ≥0.05%: 0.15%
  Related substances by HPLC: Δ8-Tetrahydrocannabinol: <0.02% (ND)
  Related substances by HPLC: Δ9-Tetrahydrocannabinol: <0.02% (ND)
40° C./75% RH, 0 month
  Appearance: White
  Assay by HPLC: 99.9%
  Each unspecified impurity: RRT~1.540: 0.06%
  Each unspecified impurity: RRT~1.690: 0.11%
  Related substances by HPLC (low level): Δ9-Tetrahydrocannabinol: 26 ppm
  Related substances by HPLC: 4-Monobromo-CBD: <0.03% (0.02%)
  Related substances by HPLC: Olivetol: <0.03% (ND)
  Related substances by HPLC: Sum of impurities, ≥0.05%: 0.17%
  Related substances by HPLC: Δ9-Tetrahydrocannabinol: <0.02% (ND)
40° C./75% RH, 1 month
  Appearance: Yellow Powder
  Assay by HPLC: 98.7%
  Each unspecified impurity: RRT~1.928: 0.06%
  Each unspecified impurity: RRT~2.150: 0.11%
  Related substances by HPLC (low level): Δ8-Tetrahydrocannabinol: 7 ppm
  Related substances by HPLC (low level): Δ9-Tetrahydrocannabinol: 28 ppm
  Related substances by HPLC: 4-Monobromo-CBD: <0.03% (0.02)
  Related substances by HPLC: Olivetol: <0.03% (ND)
  Related substances by HPLC: Sum of impurities, ≥0.05%: 0.17%
  Related substances by HPLC: Δ8-Tetrahydrocannabinol: <0.02% (ND)
  Related substances by HPLC: Δ9-Tetrahydrocannabinol: <0.02% (ND)
40° C./75% RH, 2 months
  Appearance: Off-White
  Assay by HPLC: 99.6%
  Each unspecified impurity: RRT~1.931: 0.06%
  Each unspecified impurity: RRT~2.151: 0.07%
  Related substances by HPLC (low level): Δ8-Tetrahydrocannabinol: 4 ppm
  Related substances by HPLC (low level): Δ9-Tetrahydrocannabinol: 27 ppm
  Related substances by HPLC: 4-Monobromo-CBD: <0.03% (0.02)
  Related substances by HPLC: Olivetol: <0.03% (ND)
  Related substances by HPLC: Sum of impurities, ≥0.05%: 0.13%
  Related substances by HPLC: Δ8-Tetrahydrocannabinol: <0.02% (ND)
  Related substances by HPLC: Δ9-Tetrahydrocannabinol: <0.02% (ND)
40° C./75% RH, 3 months
  Appearance: Off-white
  Assay by HPLC: 99.0%
  Each unspecified impurity: RRT~1.982: 0.05%
  Each unspecified impurity: RRT~2.258: 0.09%
  Related substances by HPLC (low level): Δ8-Tetrahydrocannabinol: 8 ppm
  Related substances by HPLC (low level): Δ9-Tetrahydrocannabinol: 17 ppm
  Related substances by HPLC: 4-Monobromo-CBD: <0.03% (0.02)
  Related substances by HPLC: Olivetol: <0.03% (ND)
  Related substances by HPLC: Sum of impurities, ≥0.05%: 0.14%
  Related substances by HPLC: Δ8-Tetrahydrocannabinol: <0.02% (ND)
  Related substances by HPLC: Δ9-Tetrahydrocannabinol: <0.02% (ND)
40° C./75% RH, 5 months
  Appearance: Beige/off-
  Assay by HPLC: 98.6%
  Each unspecified impurity: Methadienol deg-1: deg-1: 0.03%
  Each unspecified impurity: RRT~0.956: 0.04%
  Each unspecified impurity: RRT~1.918: 0.05%
  Related substances by HPLC (low level): Δ8-Tetrahydrocannabinol: 36 ppm
  Related substances by HPLC (low level): Δ9-Tetrahydrocannabinol: 24 ppm
  Related substances by HPLC: 4-Monobromo-CBD: <0.03% (ND)
  Related substances by HPLC: Olivetol: <0.03% (ND)
  Related substances by HPLC: Sum of impurities, ≥0.05%: 0.05%
  Related substances by HPLC: Δ8-Tetrahydrocannabinol: <0.02% (ND)
  Related substances by HPLC: Δ9-Tetrahydrocannabinol: <0.02% (ND)
